Laboratory results as given in patent publication US20170275270A1, “BENZYL SUBSTITUTED INDAZOLES” (Bayer Pharma Aktiengesellschaft, priority 2014, published 2017).
Where two headings read alike, the source gives them in different places.

Columns and labels:
Bub1 = Bub1 (Homo sapiens, UniProt O43683); test: Formation-Assay: phosphorylation status of histone 2A by inhibition of kinase activity of Bub1; type: cell-based; settings: Biological Assay 4.1: H2A Formation IC50, co-treatment with Nocodazole 1 μg/ml, 16 h
In short: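 Cells co-treated 16 h with Nocodazole (1 μg/ml) and compound (3 nM–10 μM), then fixed and immunostained for phospho-H2A, read by infrared imaging (800 nm) normalised to cell stain (700 nm). Nocodazole-only set as 100%, untreated cells as 0%.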

HeLa = test: Proliferation assay (HeLa cell line); settings: Homo sapiens, 96 h, read-out: Biological Assay 2: Proliferation assay (HeLa cell line) median IC50;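 note: crystal violet staining of cell number, scaled between a plate stained before dosing (0%) and cells left untreated (100%), compounds tested at 0.001-10 µM, IC50 via 4-parameter fit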
[1] = target: T1, catalytic domain of human Bub1 (amino acids 704-1085) (Homo sapiens, UniProt O43683); test: Bub1 kinase assay (TR-FRET); type: biochemical
T1 construct: catalytic domain of human Bub1 (amino acids 704-1085); His6 (N); made in house; host or cells: Hi5 insect cells
In short: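 Compounds from 2 mM DMSO stocks, serially diluted 1:3.4, incubated with enzyme at 22° C for 60 min. Stopped with EDTA, then 1 h with streptavidin-XL665, anti-phosphoserine antibody and Eu-labelled anti-mouse IgG. Phosphorylated biotin-peptide read by TR-FRET; IC50 by 4-parameter logistic fit.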

[2] = test system: HeLa human cervical tumor cells; test: Proliferation assay (HeLa+Paclitaxel); settings: read-out: Biological Assay 3: HeLa + Paclitaxel IC50, 3 nM paclitaxel, crystal violet;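 note: compounds at 0.001-10 µM added 4 h after paclitaxel, 92 h exposure, absorbance normalized to zero-point plate (0%) and untreated cells (100%), IC50 from 4-parameter fit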
[3] = 10 μM ATP, read-out: Biological Assay 1: Bub1 kinase assay median IC50
[4] = Biological Assay 1: Bub1 kinase assay median IC50, 10 μM ATP

Chain of Bub1 (O43683 whole entry): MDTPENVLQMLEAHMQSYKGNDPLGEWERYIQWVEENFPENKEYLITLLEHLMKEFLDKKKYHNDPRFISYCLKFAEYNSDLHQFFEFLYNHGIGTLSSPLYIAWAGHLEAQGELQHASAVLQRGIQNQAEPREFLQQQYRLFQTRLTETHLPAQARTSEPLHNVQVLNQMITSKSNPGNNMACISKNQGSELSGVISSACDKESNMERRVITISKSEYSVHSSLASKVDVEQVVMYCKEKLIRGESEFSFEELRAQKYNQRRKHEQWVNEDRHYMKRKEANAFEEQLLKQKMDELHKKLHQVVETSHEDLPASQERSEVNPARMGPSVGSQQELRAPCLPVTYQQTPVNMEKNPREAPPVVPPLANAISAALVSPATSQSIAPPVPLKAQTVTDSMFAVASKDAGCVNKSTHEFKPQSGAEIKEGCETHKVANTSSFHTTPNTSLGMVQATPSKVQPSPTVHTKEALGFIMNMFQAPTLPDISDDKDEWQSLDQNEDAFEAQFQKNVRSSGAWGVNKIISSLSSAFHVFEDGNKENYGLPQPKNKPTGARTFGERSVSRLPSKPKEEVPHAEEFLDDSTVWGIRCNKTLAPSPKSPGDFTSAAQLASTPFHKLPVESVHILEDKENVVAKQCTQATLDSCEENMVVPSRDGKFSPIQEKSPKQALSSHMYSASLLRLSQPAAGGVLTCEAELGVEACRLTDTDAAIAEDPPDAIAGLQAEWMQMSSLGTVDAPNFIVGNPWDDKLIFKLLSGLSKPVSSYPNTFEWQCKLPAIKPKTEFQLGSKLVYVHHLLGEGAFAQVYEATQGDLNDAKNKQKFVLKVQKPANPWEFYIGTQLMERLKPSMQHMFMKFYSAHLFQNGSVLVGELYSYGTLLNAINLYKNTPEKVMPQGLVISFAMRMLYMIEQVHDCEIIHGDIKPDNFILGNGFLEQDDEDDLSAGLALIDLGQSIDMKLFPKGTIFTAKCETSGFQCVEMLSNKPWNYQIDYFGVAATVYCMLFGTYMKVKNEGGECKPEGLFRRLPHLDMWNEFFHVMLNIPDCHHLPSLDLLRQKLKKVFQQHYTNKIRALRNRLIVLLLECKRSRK
T1 sequence (O43683 704-1085): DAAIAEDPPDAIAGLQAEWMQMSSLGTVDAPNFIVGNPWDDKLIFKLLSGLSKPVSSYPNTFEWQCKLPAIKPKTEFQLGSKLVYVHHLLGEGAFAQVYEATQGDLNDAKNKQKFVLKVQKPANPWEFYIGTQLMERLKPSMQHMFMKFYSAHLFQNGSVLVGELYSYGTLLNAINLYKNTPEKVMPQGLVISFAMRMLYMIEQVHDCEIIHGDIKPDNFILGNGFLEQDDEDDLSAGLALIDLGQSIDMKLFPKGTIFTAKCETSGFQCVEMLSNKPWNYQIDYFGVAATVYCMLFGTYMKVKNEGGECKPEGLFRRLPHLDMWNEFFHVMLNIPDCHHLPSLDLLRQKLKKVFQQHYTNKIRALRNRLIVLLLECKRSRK

Compound `CCOc1cc(F)c(Cn2nc(-c3nc4c(c(Nc5ccnc(C)c5)n3)CSC4)c3ccccc32)c(F)c1` [Example 2-19-4, 2-[1-(4-ethoxy-2,6-difluorobenzyl)-1H-indazol-3-yl]-N-(2-methylpyridin-4-yl)-5,7-dihydrothieno[3,4-d]pyrimidin-4-amine] has an IC50 (Bub1) of 45 nM, an IC50 (HeLa) of 1.2 µM and an IC50 [1, 3] of 68 nM. The IC50 [2] was 130 nM.

`CCOc1cc(F)c(Cn2nc(-c3nc4c(c(Nc5ccnc(OC)c5)n3)CCC4)c3ccccc32)c(F)c1` [Example 2-19-7, 2-[1-(4-ethoxy-2,6-difluorobenzyl)-1H-indazol-3-yl]-N-(2-methoxypyridin-4-yl)-6,7-dihydro-5H-cyclopenta[d]pyrimidin-4-amine] was tested, and the IC50 (Bub1) was 21 nM, the IC50 (HeLa) was over 10 µM and the IC50 [1, 3] was 57 nM. The IC50 [2] was 540 nM.

`CCOc1cc(F)c(Cn2nc(-c3nc4c(c(Nc5ccnc(C(F)F)c5)n3)CCC4)c3ccccc32)c(F)c1` [Example 2-19-8, N-[2-(difluoromethyl)pyridin-4-yl]-2-[1-(4-ethoxy-2,6-difluorobenzyl)-1H-indazol-3-yl]-6,7-dihydro-5H-cyclopenta[d]pyrimidin-4-amine] gave an IC50 (Bub1) of 2500 nM, an IC50 (HeLa) of over 10 µM and an IC50 [1, 3] of 8.1 nM. For the same compound, the IC50 [2] was 440 nM.

With `CCOc1cc(F)c(Cn2nc(-c3nc(CN4CCOCC4)cc(Nc4ccnc(C)c4)n3)c3ccccc32)c(F)c1` [Example 2-19-9, 2-[1-(4-ethoxy-2,6-difluorobenzyl)-1H-indazol-3-yl]-N-(2-methylpyridin-4-yl)-6-(morpholin-4-ylmethyl)pyrimidin-4-amine] the IC50 (Bub1) was 18 nM, the IC50 (HeLa) was 1.3 µM and the IC50 [1, 3] was 23 nM. For the same compound, the IC50 [2] was 75 nM.

Work on `CCOc1cc(F)c(Cn2nc(-c3nc(CN4CCOCC4)cc(Nc4ccnc(NC(=O)C5CC5)c4)n3)c3ccccc32)c(F)c1` [Example 2-19-11, N-[4-({2-[1-(4-ethoxy-2,6-difluorobenzyl)-1H-indazol-3-yl]-6-(morpholin-4-ylmethyl)pyrimidin-4-yl}amino)pyridin-2-yl]cyclopropanecarboxamide] yielded an IC50 (Bub1) of 180 nM, an IC50 (HeLa) of 1.8 µM and an IC50 [1, 3] of 9.1 nM. It also gave an IC50 [2] of 130 nM.

Work on `CCOc1cc(F)c(Cn2nc(-c3nc(CN4CCOCC4)cc(Nc4ccncc4F)n3)c3ccccc32)c(F)c1` [Example 2-19-12, 2-[1-(4-ethoxy-2,6-difluorobenzyl)-1H-indazol-3-yl]-N-(3-fluoropyridin-4-yl)-6-(morpholin-4-ylmethyl)pyrimidin-4-amine] yielded an IC50 (Bub1) of 63 nM, an IC50 (HeLa) of 4 µM and an IC50 [1, 3] of 11 nM. It also gave an IC50 [2] of 250 nM.

`CCOc1cc(F)c(Cn2nc(-c3nc(CN4CCOCC4)cc(Nc4ccncc4OC)n3)c3ccccc32)c(F)c1` [Example 2-19-13, 2-[1-(4-ethoxy-2,6-difluorobenzyl)-1H-indazol-3-yl]-N-(3-methoxypyridin-4-yl)-6-(morpholin-4-ylmethyl)pyrimidin-4-amine] was tested, and the IC50 (Bub1) was 3800 nM, the IC50 (HeLa) was 3.4 µM and the IC50 [1, 3] was 7.7 nM. It also gave an IC50 [2] of 130 nM.

In the case of `CCOc1cc(F)c(Cn2nc(-c3nc4c(c(Nc5ccncc5OC)n3)COC4)c3ccccc32)c(F)c1` [Example 2-19-17, 2-[1-(4-ethoxy-2,6-difluorobenzyl)-1H-indazol-3-yl]-N-(3-methoxypyridin-4-yl)-5,7-dihydrofuro[3,4-d]pyrimidin-4-amine], the IC50 (Bub1) is reported as 7100 nM, the IC50 (HeLa) is reported as 1.5 µM and the IC50 [1, 3] is reported as 18 nM. It also gave an IC50 [2] of 140 nM.

With `CCOc1cc(F)c(Cn2nc(-c3nc4c(c(Nc5ccnc(C(F)F)c5)n3)CCCC4)c3ccccc32)c(F)c1` [Example 2-19-19, N-[2-(difluoromethyl)pyridin-4-yl]-2-[1-(4-ethoxy-2,6-difluorobenzyl)-1H-indazol-3-yl]-5,6,7,8-tetrahydroquinazolin-4-amine] the IC50 (Bub1) was 7.3 nM, the IC50 (HeLa) was over 10 µM and the IC50 [1, 3] was 19 nM. For the same compound, the IC50 [2] was 690 nM.

`CCOc1cc(F)c(Cn2nc(-c3nc4c(c(Nc5ccncc5C)n3)CCCC4)c3ccccc32)c(F)c1` [Example 2-19-20, 2-[1-(4-ethoxy-2,6-difluorobenzyl)-1H-indazol-3-yl]-N-(3-methylpyridin-4-yl)-5,6,7,8-tetrahydroquinazolin-4-amine] gave an IC50 (Bub1) of 49 nM, an IC50 (HeLa) of 5.2 µM and an IC50 [1, 3] of 7 nM. It also gave an IC50 [2] of 120 nM.

`CCOc1cc(F)c(Cn2nc(-c3ncc(C4CCN(CC(F)(F)F)CC4)c(Nc4ccnc(NC(C)=O)c4)n3)c3ccccc32)c(F)c1` [Example 2-20-1, N-[4-({2-[1-(4-ethoxy-2,6-difluorobenzyl)-1H-indazol-3-yl]-5-[1-(2,2,2-trifluoroethyl)piperidin-4-yl]pyrimidin-4-yl}amino)pyridin-2-yl]acetamide] showed an IC50 (Bub1) of 110 nM, an IC50 (HeLa) of over 10 µM and an IC50 [1, 4] of 17 nM. It also gave an IC50 [2] of 130 nM.

For `CCOc1cc(F)c(Cn2nc(-c3ncc(C4CCN(CC(F)(F)F)CC4)c(Nc4ccnc(C)n4)n3)c3ccccc32)c(F)c1` [Example 2-20-2, 2-[1-(4-ethoxy-2,6-difluorobenzyl)-1H-indazol-3-yl]-N-(2-methylpyrimidin-4-yl)-5-[1-(2,2,2-trifluoroethyl)piperidin-4-yl]pyrimidin-4-amine], the IC50 (Bub1) was 9.1 nM, the IC50 (HeLa) was over 10 µM and the IC50 [1, 4] was 51 nM. It also gave an IC50 [2] of 260 nM.

Compound `CCOc1cc(F)c(Cn2nc(-c3ncc(C4CCN(CC(F)(F)F)CC4)c(Nc4ccncn4)n3)c3ccccc32)c(F)c1` [Example 2-20-3, 2-[1-(4-ethoxy-2,6-difluorobenzyl)-1H-indazol-3-yl]-N-(pyrimidin-4-yl)-5-[1-(2,2,2-trifluoroethyl)piperidin-4-yl]pyrimidin-4-amine] has an IC50 (Bub1) of 2.2 nM, an IC50 (HeLa) of over 10 µM and an IC50 [1, 4] of 26 nM. It also gave an IC50 [2] of 980 nM.

For `CCOc1cc(F)c(Cn2nc(-c3ncc(C4CCN(CC(F)(F)F)CC4)c(Nc4ccncc4OC)n3)c3ccccc32)c(F)c1` [Example 2-20-4, 2-[1-(4-ethoxy-2,6-difluorobenzyl)-1H-indazol-3-yl]-N-(3-methoxypyridin-4-yl)-5-[1-(2,2,2-trifluoroethyl)piperidin-4-yl]pyrimidin-4-amine], the IC50 (Bub1) was 31 nM, the IC50 (HeLa) was 1.1 µM and the IC50 [1, 4] was 70 nM. The IC50 [2] was 66 nM.

`CCOc1cc(F)c(Cn2nc(-c3ncc(C4CCN(CC(F)(F)F)CC4)c(Nc4ccnc(C)c4)n3)c3ccccc32)c(F)c1` [Example 2-20-5, 2-[1-(4-ethoxy-2,6-difluorobenzyl)-1H-indazol-3-yl]-N-(2-methylpyridin-4-yl)-5-[1-(2,2,2-trifluoroethyl)piperidin-4-yl]pyrimidin-4-amine] gave an IC50 (Bub1) of 0.5 nM, an IC50 (HeLa) of 3.6 µM and an IC50 [1, 4] of 68 nM. For the same compound, the IC50 [2] was 210 nM.

Compound `CCOc1cc(F)c(Cn2nc(-c3ncc(C4CCN(CC(F)(F)F)CC4)c(Nc4cc(C)ncc4C)n3)c3ccccc32)c(F)c1` [Example 2-20-6, N-(2,5-dimethylpyridin-4-yl)-2-[1-(4-ethoxy-2,6-difluorobenzyl)-1H-indazol-3-yl]-5-[1-(2,2,2-trifluoroethyl)piperidin-4-yl]pyrimidin-4-amine] has an IC50 (Bub1) of 81 nM, an IC50 (HeLa) of 3.2 µM and an IC50 [1, 4] of 260 nM. For the same compound, the IC50 [2] was 130 nM.

For `CCOc1cc(F)c(Cn2nc(-c3ncc(CCNCC(F)(F)F)c(Nc4ccncc4Cl)n3)c3ccccc32)c(F)c1` [Example 2-20-14, N-(3-chloropyridin-4-yl)-2-[1-(4-ethoxy-2,6-difluorobenzyl)-1H-indazol-3-yl]-5-{2-[(2,2,2-trifluoroethyl)amino]ethyl}pyrimidin-4-amine], the IC50 (Bub1) was 2.6 nM, the IC50 (HeLa) was over 10 µM and the IC50 [1, 4] was 48 nM. For the same compound, the IC50 [2] was 120 nM.

`CCOc1cc(F)c(Cn2nc(-c3nc4c(c(Nc5cc(C)ncn5)n3)CCC4)c3ccccc32)c(F)c1` [Example 2-21-1, 2-[1-(4-ethoxy-2,6-difluorobenzyl)-1H-indazol-3-yl]-N-(6-methylpyrimidin-4-yl)-6,7-dihydro-5H-cyclopenta[d]pyrimidin-4-amine] showed an IC50 (Bub1) of 1900 nM, an IC50 (HeLa) of 6 µM and an IC50 [1, 3] of 25 nM. For the same compound, the IC50 [2] was 98 nM.

For `CCOc1cc(F)c(Cn2nc(-c3ncc(C4CCN(CCC(F)(F)F)CC4)c(Nc4ccncc4OC)n3)c3ccccc32)c(F)c1` [Example 2-22-1, 2-[1-(4-ethoxy-2,6-difluorobenzyl)-1H-indazol-3-yl]-N-(3-methoxypyridin-4-yl)-5-[1-(3,3,3-trifluoropropyl)piperidin-4-yl]pyrimidin-4-amine], the IC50 (Bub1) was 72 nM, the IC50 (HeLa) was 3.6 µM and the IC50 [1, 4] was 35 nM. The IC50 [2] was 140 nM.

`CCOc1cc(F)c(Cn2nc(-c3ncc(OCCO)c(Nc4ccncc4)n3)c3ccccc32)c(F)c1` [Example 3-1-1, 2-({2-[1-(4-ethoxy-2,6-difluorobenzyl)-1H-indazol-3-yl]-4-(pyridin-4-ylamino)pyrimidin-5-yl}oxy)ethanol, reference compound] gave an IC50 (Bub1) of 1100 nM, an IC50 (HeLa) of 1.5 µM and an IC50 [1, 4] of 11 nM. It also gave an IC50 [2] of 1400 nM.

`CCOc1cc(F)c(Cn2nc(-c3ncc(OCCS(C)(=O)=O)c(Nc4ccncc4)n3)c3ccccc32)c(F)c1` [Example 3-3-1, 2-[1-(4-ethoxy-2,6-difluorobenzyl)-1H-indazol-3-yl]-5-[2-(methylsulfonyl)ethoxy]-N-(pyridin-4-yl)pyrimidin-4-amine, reference compound] was tested, and the IC50 (Bub1) was 500 nM, the IC50 (HeLa) was 4.1 µM and the IC50 [1, 4] was 5.9 nM. It also gave an IC50 [2] of 1100 nM.
